# Experiments:
# [1] = target: α2β2γ1 GABAA receptor subtype (Homo sapiens (Human), UniProt P47869+Q8N1C3); assay: Two-electrode voltage clamp electrophysiology in Xenopus oocytes expressing GABAA receptors (modulation of GABA EC20 current); assay type: cell-based; details: for Efficacy (GABA)%: % modulation of GABA EC20 = 100*(Fold increase-1), α2β2γ1 oocytes, compound at approx. 30-fold Ki; for Fold increase h-GABA-A α2β2γ1 oocyte @ 30-fold Ki: Xenopus oocytes expressing α2β2γ1, compound at approx. 30-fold its Ki α2β2γ1, GABA EC20 current
# Summary of the method: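 Each concentration was tested on ≥3 oocytes held at −80 mV at room temperature, recorded 3-5 days post-injection. A control and a test response to EC20 GABA (1.5 min each) were superimposed and their point-by-point ratio taken. Peak ratio reported as % modulation of GABA EC20 = 100×(fold increase−1).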
# [2] = target: human GABAA α2β2γ1 receptor (Homo sapiens (Human), UniProt P47869+Q8N1C3); assay: Radioligand binding assay for γ1-containing GABAA subtypes, [3H]RO7239181 competition (α2β2γ1)
# [3] = target: human GABAA α1β3γ2 receptor (Homo sapiens (Human), UniProt P14867+P18507); assay: Radioligand binding assay for γ2-containing GABAA subtypes, [3H]Flumazenil competition (α1β3γ2); details: for γ2/γ1 Selectivity Ratio: Ki α1β3γ2 (nM)/Ki α2β2γ1 (nM); for LogSel: Log[Ki α1β3γ2 (nM)/Ki α2β2γ1 (nM)]
# [4] = target: human GABAA α5β2γ1 receptor (Homo sapiens (Human), UniProt P31644+Q8N1C3); assay: Radioligand binding assay for γ1-containing GABAA subtypes, [3H]RO7239181 competition (α5β2γ1)
# [5] = Ki h-GABAA α2β2γ1, [3H]RO7239181 competition binding, human GABAA α2β2γ1
# [6] = Ki h-GABAA α2β2γ1, displacement of [3H]RO7239181, membranes of HEK293F cells expressing human receptors, means of two determinations
SMILES,Efficacy (GABA)% [1] [%],"Ki [2, 5] [µM]","Ki [2, 6] [µM]",Ki [3] [µM],γ2/γ1 Selectivity Ratio [3],Ki [4] [µM],Fold increase h-GABA-A α2β2γ1 oocyte @ 30-fold Ki [1],LogSel [3]
"C[C@@H]1N=C(c2c(F)cccc2F)c2c(ccc(C(F)(F)F)c2Cl)-n2ccnc21 [Example 150, (4S)-7-chloro-6-(2,6-difluorophenyl)-4-methyl-8-(trifluoromethyl)-4H-imidazo[1,2-a][1,4]benzodiazepine]",70,0.0073,0.0073,0.758,103.2,0.00133,,
"C[C@@H]1N=C(c2c(F)cccc2F)c2c(ccc(C(F)(F)F)c2Cl)-n2nc(NC(=O)NC3CC3)nc21 [Example 126, 1-[(4S)-7-chloro-6-(2,6-difluorophenyl)-4-methyl-8-(trifluoromethyl)-4H-[1,2,4]triazolo[1,5-a][1,4]benzodiazepin-2-yl]-3-cyclopropyl-urea]",38,0.0102,0.0102,4.6,451.4,0.00323,1.38,2.65
"Cc1cn2c(n1)[C@H](C)N=C(c1c(F)cccc1F)c1c-2ccc(C(F)(F)F)c1Cl [Example 148, (4S)-7-chloro-6-(2,6-difluorophenyl)-2,4-dimethyl-8-(trifluoromethyl)-4H-imidazo[1,2-a][1,4]benzodiazepine]",73,0.0102,0.0102,0.866,84.7,0.0021,1.73,1.93
"C[C@@H]1N=C(c2c(F)cccc2F)c2c(ccc(C(F)(F)F)c2Cl)-n2c1nc1c2CCC1 [Example 133, (10S)-6-chloro-8-(2,6-difluorophenyl)-10-methyl-5-(trifluoromethyl)-1,9,12-triazatetracyclo[9.6.0.02,7.013,17]heptadeca-2,4,6,8,11,13(17)-hexaene]",41,0.0233,0.0233,0.827,35.5,0.00523,1.41,1.55
"Cc1cnc2n1-c1ccc(Br)c(Cl)c1C(c1c(F)cccc1F)=N[C@H]2C [Example 116, (4S)-8-bromo-7-chloro-6-(2,6-difluorophenyl)-1,4-dimethyl-4H-imidazo[1,2-a][1,4]benzodiazepine]",35,0.0057,0.0057,0.0945,16.4,0.00247,1.35,1.22
"C[C@@H]1N=C(c2ncccc2F)c2c(ccc(Cl)c2Cl)-n2nc(C(=O)N3CC(OC(F)F)C3)nc21 [Example 90, [(4S)-7,8-dichloro-6-(3-fluoro-2-pyridyl)-4-methyl-4H-[1,2,4]triazolo[1,5-a][1,4]benzodiazepin-2-yl]-[3-(difluoromethoxy)azetidin-1-yl]methanone]",104,0.0218,0.0218,4.74,217.2,0.00609,2.04,2.34
"COC1CN(C(=O)Nc2nc3n(n2)-c2ccc(Cl)c(Cl)c2C(c2c(F)cccc2F)=N[C@H]3C)C1 [Example 60, 3-methoxy-N-[(4S)-7,8-dichloro-6-(2,6-difluorophenyl)-4-methyl-4H-[1,2,4]triazolo[1,5-a][1,4]benzodiazepin-2-yl]azetidine-1-carboxamide]",107,0.0123,0.0123,0.602,49.1,0.00149,2.07,1.69
"C[C@@H]1N=C(c2c(F)cccc2F)c2c(ccc(C(F)(F)F)c2Cl)-n2cc(CO)nc21 [Example 149, [(4S)-7-chloro-6-(2,6-difluorophenyl)-4-methyl-8-(trifluoromethyl)-4H-imidazo[1,2-a][1,4]benzodiazepin-2-yl]methanol]",71,0.0083,0.0083,1.11,134.1,0.00159,1.71,2.13
"Cc1cnc2n1-c1ccc(Cl)c(Cl)c1C(c1c(F)cccc1F)=N[C@H]2C [Example 111, (4S)-7,8-dichloro-6-(2,6-difluorophenyl)-1,4-dimethyl-4H-imidazo[1,2-a][1,4]benzodiazepine]",35,0.0052,0.00516,0.235,45.6,0.00124,1.35,1.66
"C[C@@H]1N=C(c2ncccc2F)c2c(ccc(Cl)c2Cl)-n2nc(C(=O)N3CC[C@@H](F)C3)nc21 [Example 78, [(4S)-7,8-dichloro-6-(3-fluoro-2-pyridyl)-4-methyl-4H-[1,2,4]triazolo[1,5-a][1,4]benzodiazepin-2-yl]-[(3R)-3-fluoropyrrolidin-1-yl]methanone]",98,0.0963,0.0963,6.9,71.6,0.0186,1.98,1.86
"[2H]C([2H])([2H])OC1CN(C(=O)c2nc3n(n2)-c2ccc(Cl)c(Cl)c2C(c2ncccc2F)=N[C@H]3C)C1 [Example 39, [(4S)-7,8-dichloro-6-(3-fluoro-2-pyridyl)-4-methyl-4H-[1,2,4]triazolo[1,5-a][1,4]benzodiazepin-2-yl]-[3-(trideuteriomethoxy)azetidin-1-yl]methanone]",89,0.0177,0.0177,4.2,237.9,0.00685,1.89,2.38
"COCCNC(=O)c1nc2n(n1)-c1ccc(Cl)c(Cl)c1C(c1c(F)cccc1F)=N[C@H]2C [Example 28, (4S)-7,8-dichloro-6-(2,6-difluorophenyl)-N-(2-methoxyethyl)-4-methyl-4H-[1,2,4]triazolo[1,5-a][1,4]benzodiazepine-2-carboxamide]",56,0.0039,0.00392,0.578,147.4,0.00108,1.56,2.17
"C[C@H](O)CNC(=O)c1nc2n(n1)-c1ccc(Cl)c(Cl)c1C(c1c(F)cccc1F)=N[C@H]2C [Example 63, (4S)-7,8-dichloro-6-(2,6-difluorophenyl)-4-methyl-N-[(2S)-2-hydroxypropyl]-4H-[1,2,4]triazolo[1,5-a][1,4]benzodiazepine-2-carboxamide]",79,0.0042,0.00425,0.606,142.6,0.00133,1.79,2.15
